According to patent US20230158057A1, “COMPOSITIONS AND METHODS FOR THE TREATMENT OF PAIN” (Duke University, priority 2020, published 2023):

Columns and labels:
DRG nociceptors = experiment: Whole-mount DRG patch clamp from tumor-bearing mice ex vivo; format: cell-based, mouse; settings: 30 μM, 2 h, DRGs isolated d11
Text: Whole-cell patch clamp recordings in whole-mount DRGs ex vivo. Four-week-old male C57BL/6 mice were used to establish the bone cancer pain model by intrafemoral inoculation of LLC, leading to nociceptor hyperexcitability in the ipsilateral L3-L5 DRGs which extend afferent nerve fibers to the tumor-bearing femur. […] 11d after tumor implantation, mice were euthanized followed by careful isolation of L3-L5 DRGs, which were placed in oxygenated artificial cerebrospinal fluid. DRGs were lightly digested for 20 minutes using an enzymatic mixture consisting of 0.32 ml collagenase A (1 mg/mL) and Trypsin (0.25%). Intact DRGs were then incubated in ACSF oxygenated with 95% O2 and 5% CO2, supplemented with vehicle (PBS) or 30 μM DMXAA in PBS for 2 hours at 37° C. Following incubation, DRGs were transferred to a recording chamber, where neurons could be visualized using a 40× water-immersion objective on an Olympus BX51WI microscope. Patch pipettes were pulled from borosilicate capillaries (Chase Scientific Glass Inc.) and filled with a pipette solution containing (in mM): 126 potassium gluconate, 10 NaCl, 1 MgCl2, 10 EGTA, 2 Na-ATP, and 0.1 Mg-GTP, adjusted to pH 7.3 with KOH. The external solution was composed of (in mM): 140 NaCl, 5 KCl, 2 CaCl2, 1 MgCl2, 10 HEPES, 10 glucose, adjusted to pH 7.4 with NaOH. […] Data were recorded and analyzed using the pClamp10 (Axon Instruments) software.

PINP = experiment: Serum PINP ELISA; format: in vivo, mouse; settings: d17
Protocol: ELISA. Mouse high-sensitivity IFN-α ELISA kit (42115-1) and IFN-β ELISA kit (42410-1) were purchased from PBL Assay Science. Mouse CTX-I ELISA kit (AC-06F1) and mouse PINP ELISA kit (AC-33F1) were purchased from Immunodiagnostic Systems. ELISA was performed using culture medium, serum, and bone marrow lysates. Serum was obtained from whole blood that was collected from a submandibular vein via facial vein puncture, coagulated for 30 minutes at room temperature, followed by centrifugation (2,000 ×g for 10 min, 4° C.) and collection of the supernatant (serum). Bone marrow was homogenized in a lysis buffer containing protease inhibitors at 4° C. for 30 minutes. ELISA was conducted in accordance with the manufacturer's instructions. A standard curve was performed for each experiment.

tumor-bearing femora = experiment: Microcomputed tomography of tumor-bearing femurs; format: in vivo, mouse
Protocol: Microcomputed tomography. Microcomputed tomography (MicroCT) analyses were performed on femurs from tumor inoculated mice or naïve mice using a VivaCT 80 scanner with the 55-kVp source (Scanco, Southeastern, Pa.) as previously described (Wang, C. et al. “NOTCH signaling in skeletal progenitors is critical for fracture repair.” The Journal of Clinical Investigation 126, 1471-1481 (2016); Cao, C. et al. “Increased Ca2+ signaling through CaV1.2 promotes bone formation and prevents estrogen deficiency-induced bone loss.” JCI Insight 2, (2017)). Quantification of microCT data was calculated for distal femurs of mice treated with vehicle or DMXAA. Parameters quantified included bone volume/total volume (BV/TV) and connectivity density (Conn.D) within a region of 100 slides and 200 slides proximal to the distal growth plate.

[1] = system: naïve mice or mice following spared nerve injury (SNI); experiment: Repeated i.t. STING agonist administration, nerve injury (SNI) model; format: in vivo, mouse
Protocol: Mouse pain models: The chemotherapy-induced peripheral neuropathy (CIPN) model of chronic neuropathic pain was established as we have done previously, using 8-10-week-old CD-1 (strain #022, Charles River) mice injected with paclitaxel (2 mg/kg i.p.) every other day, with 4 injections total. The chronic constriction injury (CCI) model of neuropathic pain was also produced using 8-10-week-old CD-1 under isoflurane anesthesia. Briefly, the right sciatic nerve was exposed above the hip and two ligatures (7-0 Prolene) were placed around the nerve 1 mm apart located proximal to the trifurcation. Ligatures were loosely tied until a subtle flick of the ipsilateral hind limb was observed. CD-1 mice were also used to establish the SNI model, which was generated by tightly ligating the tibial and common peroneal nerves followed by transection and removal of a ˜3 mm portion of the nerve. The sural nerve was left intact and contact or stretching of this nerve was avoided . To establish the syngeneic bone cancer pain (BCP) model, 8-10-week-old C57BL/6J mice (strain #000664, Jackson Labs) were utilized, as the Lewis lung carcinoma cell line LLC1 (LL/2; ATCC CRL-1642) was originally generated in C57BL/6J mice. Mice were anesthetized with isoflurane and the left leg was shaved, disinfected with 10% povidone-iodine, and a 1 cm superficial incision was made to expose the patellar ligament. A 25-gauge needle was inserted at the intercondylar notch of the left femur into the femoral cavity, followed by needle replacement with a 10 μl Hamilton syringe microinjector containing a 2 μl suspension of LLC cells (2×10^5 cells) followed by a 2 μl gelatin sponge solution to enable closure of the injection site. All mice were housed and monitored in accordance with AAALAC standards and Duke IACUC guidelines that pertained to each model.
Reflexive-based sensory testing in mice: All behavioral testing in mice was performed in a specialized humidity- and light-controlled mouse behavior facility maintained at 21-24° C., with testing conducted between the hours of 8:00-16:00. Mice were habituated to the testing environment for at least 2 days prior to baseline testing. All tests were performed by an experimenter who was blinded to experimental conditions, including genotypes and drug treatment. For multi-day experiments using STING agonists, mice were tested in the same room at approximately the same time each day. To measure mechanical sensitivity, mice were confined to individual chambers with non-transparent borders on an elevated mesh rack, preventing mice from visualizing or interacting with one another during the testing period. […] We determined the 50% paw withdrawal threshold using the up-down method. […]

Cc1ccc2c(=O)c3cccc(CC(=O)O)c3oc2c1C [DMXAA, 2-(5,6-dimethyl-9-oxo-9H-xanthen-4-yl)acetic acid]
current-evoked action potential firing (DRG nociceptors): sharply reduced the cancer-induced increase in current-evoked action potential firing | rheobase of nociceptors (DRG nociceptors): markedly increased the rheobase of nociceptors | serum PINP levels (PINP): had no effect on serum PINP levels | cortical bone volume/total volume (BV/TV) (tumor-bearing femora; d11): increased cortical bone volume/total volume (BV/TV) | trabecular bone connectivity density (Conn.D) (tumor-bearing femora; d11): higher trabecular bone connectivity density (Conn.D) | trabecular bone loss and cortical bone lesions (3D reconstruction) (tumor-bearing femora; d11 after tumor implantation): less bone cancer-induced trabecular bone loss and fewer cortical bone lesions | tolerance on repeated administration ([1]; repeated i.t. 35 nmol, naïve mice or SNI mice): did not show signs of tolerance | SNI-induced astrogliosis ([1]; repeated i.t. administration, SNI): attenuated SNI-induced astrogliosis | cold allodynia at later timepoints ([1]; repeated i.t., starting at D12): significantly reduced | mechanical allodynia at later timepoints ([1]; repeated i.t., starting at D12): significantly reduced
